What all share (test): NCI anticancer screen, dose series, 48 h
The test system of assay [1] is COLO 205 colon.
Assay [2] concerns HCT-15 colon.
Assay [3] relates to HL-60(TB) leukemia.
The test system of assay [4] is HS 578T breast.
For assay [5], the system named is LOX IMVI melanoma.
For assay [6], the system named is MALME-3M melanoma.
For assay [7], the system named is NCI-H460 lung.
Assay [8] deals with PC-3 prostate.
For assay [9], the system named is SNB-19 CNS.
The test system of assay [10] is U251 CNS.

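Test compounds were applied to cells in 96-well plates for 48 hours at 5 doses. GI50: concentration for 50% inhibition of growth. TGI is the concentration that stops growth completely.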

For `COc1ccc(-c2nc3ccc(-c4nc5ccc(N6CCN(c7ccccc7)CC6)cc5[nH]4)cc3[nH]2)cc1OC`, the GI50 is 0.77 µM in [1]; 5.13 µM in [2]; 1.78 µM in assay [3]; 2.25 µM in [4]; 0.357 µM in assay [5]; 1.05 µM in [6]. The GI50 is 1.73 µM in assay [7], 1.59 µM in assay [8], 1.93 µM in [9] and 1.2 µM in assay [10]. For the same compound, the TGI was 2.81 µM in assay [1]; greater than 100 µM in assay [2]; 10.2 µM in [3]; 4.93 µM in [4]; 1.34 µM in assay [5]; 2.52 µM in [6]. Also, the TGI came out at 3.66 µM in assay [7], 3.26 µM in assay [8], 3.59 µM in assay [9] and 3.02 µM in assay [10].

In the case of `CCCN1C(=O)N(CCC)C2C1NC(=S)N2/N=C/C=C/c1ccccc1OC` (stereo unspecified), the GI50 in assay [1] was 0.52 µM; in assay [2], 0.537 µM; in [3], 0.337 µM; in [4] it was 0.478 µM; in assay [5], 0.627 µM; in [6], 0.694 µM. For the same compound, the GI50 in assay [7] is 0.418 µM; in assay [8], 0.424 µM; in assay [9], 1.66 µM; in assay [10], 0.588 µM. The TGI in [1] is 9.09 µM; in assay [2] it was greater than 100 µM; in assay [3], 1.71 µM; in [4], greater than 100 µM; in [5], 21.3 µM; in [6], 82.1 µM. Also, the TGI in [7] was 16.5 µM; in [8], greater than 100 µM; in [9], greater than 100 µM; in assay [10], 27.4 µM.

`CC[C@H]1[C@@H]2C=C[C@@H]3[C@H]4C/C=C\C(=O)NCCC[C@@H]5NC(=O)/C(=C(O)/C=C/[C@@H]4C[C@@H]3[C@H]2C[C@H]1C)C5=O`: the GI50 was 3.24 µM in assay [1]; 0.425 µM in assay [2]; 1.92 µM in [3]; 1.44 µM in assay [4]; 0.662 µM in assay [5]; 1.39 µM in assay [6]. Also, the GI50 in [7] is 0.409 µM; in [8], 0.865 µM; in assay [9] it was 1.04 µM; in [10], 1.82 µM. Further, the TGI in [1] is 8.44 µM; in assay [2], 1.86 µM; in [3] it was 3.99 µM; in [4], 3.81 µM; in assay [5] it was 1.96 µM; in assay [6] it was 2.83 µM. Moreover, the TGI is 1.84 µM in assay [7], 2.3 µM in assay [8], 2.42 µM in [9] and 3.33 µM in assay [10].

Take `COc1ccc(/C=C2/N=C(c3ccccc3)N(c3c(C)n(C)n(-c4ccccc4)c3=O)C2=O)cc1OC`: the GI50 is greater than 100 µM in assay [1]; greater than 100 µM in assay [2]; greater than 100 µM in [3]; 60 µM in assay [4]; greater than 100 µM in [5]; greater than 100 µM in assay [6]. For the same compound, the GI50 in assay [7], in assay [8], in assay [9] and in [10] was greater than 100 µM each time. Also, the TGI in assay [1], in assay [2], in assay [3], in [4], in [5] and in assay [6] was greater than 100 µM throughout. Moreover, the TGI in assay [7], in [8], in assay [9] and in assay [10] was greater than 100 µM each time.

As for `COc1cc2c(cc1OCCCNC(=O)c1cccc3c(=O)c4ccccc4[nH]c13)N=C[C@@H]1CCCN1C2=O`, the GI50 in [1] is less than 0.01 µM; in assay [2], 0.114 µM; in assay [4] it was less than 0.01 µM; in assay [5], less than 0.01 µM; in [8], less than 0.011 µM; in [9] it was less than 0.0206 µM. Besides, the GI50 in assay [10] was less than 0.01 µM. The TGI in assay [1] was 0.0437 µM; in assay [2], greater than 100 µM; in [3], greater than 77 µM; in [4], 0.121 µM; in assay [6] it was 0.388 µM; in assay [7], 3.76 µM. The TGI in assay [8] was 0.949 µM; in assay [9] it was greater than 45.7 µM; in assay [10], greater than 48.8 µM.

For `C[C@@H]1CC[C@@H]2[C@@H]1[C@H](OC(=O)/C=C/c1ccccc1)[C@]1(C3CCCCC3)C[C@@H](OC(=O)CO)[C@@]2(C)O1`, the GI50 is 3.12 µM in assay [1]; 2.44 µM in assay [2]; 2.75 µM in assay [3]; 0.0237 µM in assay [4]; 1.67 µM in assay [5]; 2.48 µM in assay [6]. Moreover, the GI50 is 2.62 µM in [7], 3.04 µM in [8], 3.94 µM in assay [9] and 2.7 µM in assay [10]. Further, the TGI in assay [1] is 11.1 µM; in assay [2] it was 7.93 µM; in [3] it was 6.43 µM; in assay [4], 0.0978 µM; in assay [5], 3.27 µM; in [6] it was 7.21 µM. Besides, the TGI in [7] is 6.55 µM; in [8], 11.3 µM; in [9], 13.6 µM; in assay [10] it was 8.26 µM.

With `COc1cc(Cn2c(-c3ccccc3)c(Cl)c3c2-c2oncc2CC3)cc(OC)c1`, the GI50 in assay [1] was 8.03 µM; in [2], 4.84 µM; in assay [3], 3.32 µM; in assay [4], 3.71 µM; in assay [5] it was 3.06 µM; in assay [6], 4.16 µM. In addition, the GI50 in assay [7] is 4.91 µM; in [8], 7.12 µM; in assay [9], 22.8 µM; in assay [10], 6.2 µM. Moreover, the TGI in assay [1] is 30.6 µM; in assay [2] it was greater than 100 µM; in [3] it was 38.6 µM; in assay [4], 82.3 µM; in assay [5] it was 12 µM; in [6] it was 21.1 µM. Further, the TGI in [7] was 84 µM; in assay [8], greater than 100 µM; in assay [9] it was greater than 100 µM; in assay [10], greater than 100 µM.

The record behind these values is PubChem BioAssay (NCI).
